Assay in all cases: DSF 100 kinase selectivity screen;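 note: compound tested at 20 µM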
Type in all cases: binding

The target in assay [1] is T1, ~100 representative kinases (Homo sapiens, UniProt P49759).
T1 construct: Recombinant protein kinase domains with a concentration of 2 μM
The settings on record: Protein CLK1; average of three replicates. Summed up:
(§1)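 Each kinase domain, at 2 μM, is mixed with 20 μM test compound and SYPRO Orange in Hepes (20 mM, pH 7.5) with 500 mM NaCl. Temperature is then raised at 3°C/min and fluorescence-monitored unfolding yields the melting temperature change, ΔTm in degrees Celsius.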

Assay [2] has as its target T2, ~100 representative kinases (Homo sapiens, UniProt P15735).
T2 construct: Recombinant protein kinase domains with a concentration of 2 μM
T2 sequence (P15735 1-406): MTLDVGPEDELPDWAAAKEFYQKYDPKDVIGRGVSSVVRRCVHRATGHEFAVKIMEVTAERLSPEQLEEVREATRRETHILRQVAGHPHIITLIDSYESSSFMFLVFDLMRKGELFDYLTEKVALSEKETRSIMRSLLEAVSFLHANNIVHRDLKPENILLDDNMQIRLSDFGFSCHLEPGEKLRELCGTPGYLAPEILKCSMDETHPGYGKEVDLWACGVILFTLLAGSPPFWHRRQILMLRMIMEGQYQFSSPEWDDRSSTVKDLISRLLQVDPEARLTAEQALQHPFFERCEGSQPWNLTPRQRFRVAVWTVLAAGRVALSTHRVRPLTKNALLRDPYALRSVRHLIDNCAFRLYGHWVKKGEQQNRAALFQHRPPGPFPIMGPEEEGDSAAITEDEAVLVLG
The settings on record: protein PHKG2; average of three replicates. The method in brief:
as §1

For assay [3], the target named is T3, ~100 representative kinases (Homo sapiens, UniProt Q96PY6).
T3 construct: Recombinant protein kinase domains with a concentration of 2 μM
T3 sequence (Q96PY6 1-1258): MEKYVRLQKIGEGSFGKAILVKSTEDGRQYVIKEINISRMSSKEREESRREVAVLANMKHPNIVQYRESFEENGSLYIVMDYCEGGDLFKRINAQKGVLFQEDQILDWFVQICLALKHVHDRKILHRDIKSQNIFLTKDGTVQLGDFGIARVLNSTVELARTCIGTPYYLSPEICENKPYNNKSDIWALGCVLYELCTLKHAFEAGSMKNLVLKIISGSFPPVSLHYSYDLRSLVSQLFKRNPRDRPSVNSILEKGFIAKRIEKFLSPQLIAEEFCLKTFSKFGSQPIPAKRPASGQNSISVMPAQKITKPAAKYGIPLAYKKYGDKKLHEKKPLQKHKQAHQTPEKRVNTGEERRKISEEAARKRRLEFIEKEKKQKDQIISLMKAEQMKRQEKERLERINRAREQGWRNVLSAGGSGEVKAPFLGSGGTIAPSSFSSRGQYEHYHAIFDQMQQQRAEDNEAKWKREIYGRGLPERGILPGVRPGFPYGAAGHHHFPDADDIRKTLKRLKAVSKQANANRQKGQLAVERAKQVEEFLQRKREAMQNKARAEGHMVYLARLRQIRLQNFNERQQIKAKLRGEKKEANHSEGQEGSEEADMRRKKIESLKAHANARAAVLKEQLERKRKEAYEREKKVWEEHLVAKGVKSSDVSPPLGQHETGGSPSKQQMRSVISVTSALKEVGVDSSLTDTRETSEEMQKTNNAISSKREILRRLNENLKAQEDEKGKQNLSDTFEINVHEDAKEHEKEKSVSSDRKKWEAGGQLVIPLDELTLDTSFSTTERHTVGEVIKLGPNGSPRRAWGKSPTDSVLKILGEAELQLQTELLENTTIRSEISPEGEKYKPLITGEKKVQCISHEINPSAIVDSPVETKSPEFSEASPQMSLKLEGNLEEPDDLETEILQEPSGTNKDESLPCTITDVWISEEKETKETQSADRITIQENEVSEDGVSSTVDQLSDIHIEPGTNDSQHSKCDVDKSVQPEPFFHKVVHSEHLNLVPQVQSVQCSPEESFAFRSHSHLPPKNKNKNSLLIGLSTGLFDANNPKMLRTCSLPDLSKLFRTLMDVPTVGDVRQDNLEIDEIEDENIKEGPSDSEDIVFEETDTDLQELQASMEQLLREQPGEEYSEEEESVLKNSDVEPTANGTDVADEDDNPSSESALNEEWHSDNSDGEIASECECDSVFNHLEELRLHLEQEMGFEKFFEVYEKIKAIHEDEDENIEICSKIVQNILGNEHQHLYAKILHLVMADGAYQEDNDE
The conditions noted are these: protein NEK1; average of three replicates. The method in brief: as §1

The target in assay [4] is T4, ~100 representative kinases (Homo sapiens, UniProt Q15418).
T4 construct: Recombinant protein kinase domains with a concentration of 2 μM
The settings on record: Protein RPS6KA1; DSF; average of three replicates. Summed up:
as §1

The target of assay [5] is T5, ~100 representative kinases (Homo sapiens, UniProt P48730).
T5 construct: Recombinant protein kinase domains with a concentration of 2 μM
The conditions noted are these: Protein CSNK1D; average of three replicates. Summed up: as §1

For assay [6], the target named is T6, ~100 representative kinases (Homo sapiens, UniProt O96017).
T6 construct: Recombinant protein kinase domains with a concentration of 2 μM
The settings on record: Protein CHEK2; average of three replicates. The method in brief: as §1

For assay [7], the target named is T7, ~100 representative kinases (Homo sapiens, UniProt P54764).
T7 construct: Recombinant protein kinase domains with a concentration of 2 μM
The conditions noted are these: Protein EPHA4; average of three replicates. The method in brief: as §1

In assay [8] the target is T8, ~100 representative kinases (Homo sapiens, UniProt P07332).
T8 construct: Recombinant protein kinase domains with a concentration of 2 μM
The conditions noted are these: protein FESA; average of three replicates. Summed up: as §1

For assay [9], the target named is T9, ~100 representative kinases (Homo sapiens, UniProt P53355).
T9 construct: Recombinant protein kinase domains with a concentration of 2 μM
The conditions noted are these: Protein DAPK1; average of three replicates. Summed up: as §1

T4 sequence (Q15418 whole entry, the tested form may be a part): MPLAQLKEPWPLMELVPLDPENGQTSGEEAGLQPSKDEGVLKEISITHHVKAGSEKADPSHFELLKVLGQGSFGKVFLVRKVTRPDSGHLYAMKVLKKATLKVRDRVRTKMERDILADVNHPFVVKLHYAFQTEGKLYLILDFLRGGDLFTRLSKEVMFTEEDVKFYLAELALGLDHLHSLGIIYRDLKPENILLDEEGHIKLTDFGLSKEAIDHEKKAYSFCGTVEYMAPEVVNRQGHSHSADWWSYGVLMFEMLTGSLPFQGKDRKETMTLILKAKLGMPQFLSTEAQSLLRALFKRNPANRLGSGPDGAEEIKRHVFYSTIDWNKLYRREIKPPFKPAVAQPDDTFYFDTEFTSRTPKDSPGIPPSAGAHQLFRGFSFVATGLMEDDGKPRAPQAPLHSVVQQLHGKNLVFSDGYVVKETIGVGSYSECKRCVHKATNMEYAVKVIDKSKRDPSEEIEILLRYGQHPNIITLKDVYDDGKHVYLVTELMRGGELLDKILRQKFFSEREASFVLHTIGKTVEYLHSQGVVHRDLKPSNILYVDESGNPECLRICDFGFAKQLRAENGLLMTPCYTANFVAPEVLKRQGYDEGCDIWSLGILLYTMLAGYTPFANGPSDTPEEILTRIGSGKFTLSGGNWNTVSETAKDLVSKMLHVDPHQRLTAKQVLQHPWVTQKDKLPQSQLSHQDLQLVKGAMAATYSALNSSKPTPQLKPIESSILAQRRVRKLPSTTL
T6 sequence (O96017 whole entry, the tested form may be a part): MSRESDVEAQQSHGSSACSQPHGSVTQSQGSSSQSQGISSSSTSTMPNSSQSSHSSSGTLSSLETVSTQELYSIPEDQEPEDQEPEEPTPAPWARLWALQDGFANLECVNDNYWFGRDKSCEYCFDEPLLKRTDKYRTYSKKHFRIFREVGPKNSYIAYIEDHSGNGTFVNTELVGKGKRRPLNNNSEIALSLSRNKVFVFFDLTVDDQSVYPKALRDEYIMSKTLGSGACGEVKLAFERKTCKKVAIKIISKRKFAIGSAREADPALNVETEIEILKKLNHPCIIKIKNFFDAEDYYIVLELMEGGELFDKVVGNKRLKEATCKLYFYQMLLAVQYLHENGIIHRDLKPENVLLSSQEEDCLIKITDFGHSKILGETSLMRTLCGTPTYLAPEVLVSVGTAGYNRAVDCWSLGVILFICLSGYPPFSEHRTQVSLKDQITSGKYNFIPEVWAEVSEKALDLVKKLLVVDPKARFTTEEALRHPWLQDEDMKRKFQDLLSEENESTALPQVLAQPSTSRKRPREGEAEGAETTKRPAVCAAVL
T5 sequence (P48730 whole entry, the tested form may be a part): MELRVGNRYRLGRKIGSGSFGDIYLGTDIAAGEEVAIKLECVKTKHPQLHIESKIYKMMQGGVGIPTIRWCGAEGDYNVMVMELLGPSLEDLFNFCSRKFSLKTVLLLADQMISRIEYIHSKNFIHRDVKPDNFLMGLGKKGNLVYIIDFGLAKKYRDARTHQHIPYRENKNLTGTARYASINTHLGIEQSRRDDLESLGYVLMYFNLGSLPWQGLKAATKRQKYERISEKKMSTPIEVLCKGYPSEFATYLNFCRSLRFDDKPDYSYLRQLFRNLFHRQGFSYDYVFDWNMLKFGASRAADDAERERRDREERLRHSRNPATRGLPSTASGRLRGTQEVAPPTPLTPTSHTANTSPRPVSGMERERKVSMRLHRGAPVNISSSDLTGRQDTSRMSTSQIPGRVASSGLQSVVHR
T7 sequence (P54764 20-986): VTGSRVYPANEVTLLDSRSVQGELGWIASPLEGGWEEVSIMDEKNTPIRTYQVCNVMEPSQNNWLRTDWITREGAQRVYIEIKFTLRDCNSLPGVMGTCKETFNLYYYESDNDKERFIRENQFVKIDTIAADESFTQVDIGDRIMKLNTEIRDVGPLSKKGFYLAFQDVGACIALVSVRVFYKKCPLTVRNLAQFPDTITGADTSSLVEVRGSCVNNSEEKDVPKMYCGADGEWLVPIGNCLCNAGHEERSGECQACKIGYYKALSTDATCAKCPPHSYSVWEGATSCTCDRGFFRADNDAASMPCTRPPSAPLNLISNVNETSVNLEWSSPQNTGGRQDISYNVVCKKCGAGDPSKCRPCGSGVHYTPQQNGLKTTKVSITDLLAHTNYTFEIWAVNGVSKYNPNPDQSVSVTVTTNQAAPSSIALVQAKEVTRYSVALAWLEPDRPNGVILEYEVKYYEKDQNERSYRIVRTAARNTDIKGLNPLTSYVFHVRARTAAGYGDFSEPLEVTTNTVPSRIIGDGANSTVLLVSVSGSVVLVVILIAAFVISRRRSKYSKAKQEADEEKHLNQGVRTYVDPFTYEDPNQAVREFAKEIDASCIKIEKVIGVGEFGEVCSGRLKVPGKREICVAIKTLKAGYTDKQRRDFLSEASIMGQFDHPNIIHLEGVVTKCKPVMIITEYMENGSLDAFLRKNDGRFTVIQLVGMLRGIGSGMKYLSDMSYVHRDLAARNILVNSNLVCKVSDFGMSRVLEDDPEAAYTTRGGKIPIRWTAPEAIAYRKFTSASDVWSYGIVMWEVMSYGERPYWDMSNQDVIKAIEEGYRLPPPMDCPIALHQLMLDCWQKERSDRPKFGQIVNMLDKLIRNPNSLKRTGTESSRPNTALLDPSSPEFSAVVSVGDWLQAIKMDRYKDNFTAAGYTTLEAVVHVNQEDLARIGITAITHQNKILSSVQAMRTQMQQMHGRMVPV
T1 sequence (P49759 whole entry, the tested form may be a part): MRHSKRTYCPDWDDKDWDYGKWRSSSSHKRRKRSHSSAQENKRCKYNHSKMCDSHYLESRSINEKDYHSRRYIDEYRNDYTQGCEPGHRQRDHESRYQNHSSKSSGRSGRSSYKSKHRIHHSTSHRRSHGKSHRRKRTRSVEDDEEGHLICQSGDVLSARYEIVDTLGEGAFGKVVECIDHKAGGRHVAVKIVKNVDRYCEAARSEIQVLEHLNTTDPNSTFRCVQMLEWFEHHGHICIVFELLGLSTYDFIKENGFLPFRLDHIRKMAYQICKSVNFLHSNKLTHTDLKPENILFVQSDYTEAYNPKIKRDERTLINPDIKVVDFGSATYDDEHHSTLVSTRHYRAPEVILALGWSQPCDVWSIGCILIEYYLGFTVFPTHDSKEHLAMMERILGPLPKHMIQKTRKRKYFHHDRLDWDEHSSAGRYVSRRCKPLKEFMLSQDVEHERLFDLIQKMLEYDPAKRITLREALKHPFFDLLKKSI
T8 sequence (P07332 whole entry, the tested form may be a part): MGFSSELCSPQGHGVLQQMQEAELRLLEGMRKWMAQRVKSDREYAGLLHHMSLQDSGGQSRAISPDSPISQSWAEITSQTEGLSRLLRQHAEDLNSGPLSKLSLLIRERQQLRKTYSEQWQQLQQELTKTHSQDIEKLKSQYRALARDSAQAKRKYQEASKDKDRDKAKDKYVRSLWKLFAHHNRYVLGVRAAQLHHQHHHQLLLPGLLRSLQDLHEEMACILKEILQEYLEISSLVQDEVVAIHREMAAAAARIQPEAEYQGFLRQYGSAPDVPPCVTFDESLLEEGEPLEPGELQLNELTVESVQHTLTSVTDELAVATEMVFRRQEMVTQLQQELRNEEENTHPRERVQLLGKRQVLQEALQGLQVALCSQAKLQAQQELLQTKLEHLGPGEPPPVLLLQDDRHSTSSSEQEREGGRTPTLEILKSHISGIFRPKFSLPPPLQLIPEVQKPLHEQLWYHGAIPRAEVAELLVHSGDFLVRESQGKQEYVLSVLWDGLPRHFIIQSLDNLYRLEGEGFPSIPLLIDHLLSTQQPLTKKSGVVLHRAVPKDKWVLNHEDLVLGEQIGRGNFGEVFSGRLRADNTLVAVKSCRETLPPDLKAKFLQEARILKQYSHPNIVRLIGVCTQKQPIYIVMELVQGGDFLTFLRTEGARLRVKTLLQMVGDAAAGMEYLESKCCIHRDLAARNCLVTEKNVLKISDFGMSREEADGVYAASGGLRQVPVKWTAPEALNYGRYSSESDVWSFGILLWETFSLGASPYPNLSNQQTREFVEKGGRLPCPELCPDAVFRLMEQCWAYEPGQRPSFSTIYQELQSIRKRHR

With `O=C(Nc1cccc(-c2c[nH]c3ncnc(N4CCOCC4)c23)c1)C1(C(=O)Nc2ccc(F)c(F)c2)CC1` [Compound 17], the dTm in assay [1] is reported as 8.95 K; in assay [2] it was 2.57 K; in assay [3], 0.29 K; in assay [4], 0.38 K; in assay [5], 2.63 K; in assay [6] it was 4.07 K. Moreover, the values for the dTm in assay [7], in assay [8] and in assay [9] were 1.24 K, 5.87 K and -0.77 K, respectively.

`O=C(Nc1cccc(-c2c[nH]c3ncnc(N4CCOCC4)c23)c1)C1(C(=O)Nc2cc(Br)c(F)cc2F)CC1` [Compound 25]: the dTm in [1] is given as 4.99 K; in assay [2], 0.58 K; in [3], -6.30 K; in assay [4], -1.87 K; in [5] it was -0.29 K; in assay [6], 2.02 K. In addition, the results for the dTm in [7], in [8] and in assay [9] were 1.97 K, 3.29 K and -0.48 K, respectively.

`CC(C)(C)c1cc(NC(=O)Nc2cccc(-c3c[nH]c4ncnc(N5CCOCC5)c34)c2)n(-c2ccc3ncccc3c2)n1` [Compound 28]: the dTm is reported as 19.59 K in assay [1]; 3.91 K in assay [2]; 0.13 K in assay [3]; 0.32 K in [4]; 1.22 K in [5]; 10.72 K in assay [6]. Further, the figures for the dTm in [7], in assay [8] and in assay [9] were 8.59 K, 9.54 K and 2.32 K, respectively.

On to `COc1cc(C(=O)N2CCOCC2)c(F)cc1Nc1nc(N(C)C)c2c(Cl)c[nH]c2n1` [Compound 36], for which the dTm in assay [1] is given as 8.96 K; in assay [2] it was 7.95 K; in [3] it was 0.22 K; in assay [4], 1.99 K; in assay [5], 4.03 K; in assay [6], 13.85 K. The dTm in assay [7] was -0.69 K; in assay [8], 2.67 K; in assay [9] it was 3.45 K.

Regarding `COc1cc2c(Oc3ccc(NC(=O)C4(C(=O)Nc5ccc(F)cc5)CC4)cc3F)ccnc2cc1OCCCN1CCOCC1` [Foretinib, reference compound], the dTm in assay [1] is on record as 6.72 K; in [2] it was 1.61 K; in assay [3], 0.60 K; in [4] it was -0.88 K; in [5], 0.91 K; in assay [6], 18.83 K. The results for the dTm in [7], in assay [8] and in assay [9] were 11.16 K, 6.46 K and -0.15 K, respectively.

Turning to `Cc1ccc(-n2nc(C(C)(C)C)cc2NC(=O)Nc2cccc(-c3c[nH]c4nc(Cl)nc(N5CCOCC5)c34)c2)cc1` [Compound 30], the dTm in assay [1] is 11.59 K; in assay [2] it was -1.15 K; in assay [3] it was -0.84 K; in assay [4] it was -0.59 K; in assay [5] it was -2.91 K; in assay [6] it was 4.41 K. The figures for the dTm in [7], in [8] and in assay [9] were 1.07 K, 3.55 K and -3.64 K, respectively.

Consider `CC(C)(C)c1cccc(NC(=O)C2(C(=O)Nc3cccc(-c4c[nH]c5ncnc(N6CCOCC6)c45)c3)CC2)c1` [Compound 22], for which the dTm is reported as 7.58 K in [1]; -0.10 K in assay [2]; -1.56 K in assay [3]; -0.38 K in [4]; -2.04 K in assay [5]; 3.64 K in assay [6]. Moreover, the figures for the dTm in assay [7], in assay [8] and in assay [9] were 2.71 K, 7.02 K and -2.58 K, respectively.

For `COc1ccc(NC(=O)C2(C(=O)Nc3cccc(-c4c[nH]c5ncnc(N6CCOCC6)c45)c3)CC2)cc1` [Compound 16], the dTm in [1] is 7.75 K; in [2], -0.08 K; in assay [3], 0.34 K; in assay [4], -0.37 K; in assay [5], 0.92 K; in [6] it was 2.18 K. Besides, the dTm in [7] is on record as -0.05 K; in assay [8], 3.37 K; in [9] it was -0.99 K.

Regarding `CC(=O)N1CCN(c2nc(Cl)nc3[nH]cc(-c4cccc(NC(=O)Nc5cc(C(C)(C)C)nn5-c5ccc(C)cc5)c4)c23)CC1` [Compound 31], the dTm in assay [1] is on record as 10.57 K; in assay [2], -0.72 K; in [3], -1.20 K; in assay [4], -0.67 K; in [5], -0.88 K; in assay [6], 5.59 K. The dTm in [7] is on record as 2.58 K; in assay [8], 0.00 K; in assay [9] it was -1.54 K.

`Cc1cc(NC(=O)C2(C(=O)Nc3ccc(F)cc3)CC2)cc(-c2c[nH]c3ncnc(N4CCOCC4)c23)c1` [Compound 6]: the dTm is recorded as 4.67 K in [1]; 0.93 K in assay [2]; -0.00237 K in assay [3]; 0.88 K in [4]; 1.10 K in assay [5]; 1.23 K in assay [6]. The dTm in assay [7] is recorded as 2.49 K; in assay [8], 4.17 K; in assay [9] it was -0.31 K.

As for `O=C(Nc1cccc(-c2c[nH]c3ncnc(N4CCOCC4)c23)c1)C1(C(=O)Nc2ccc(F)c(Br)c2F)CC1` [Compound 26], the dTm was 6.34 K in [1]; 0.60 K in assay [2]; -0.27 K in assay [3]; 0.78 K in assay [4]; 0.95 K in assay [5]; 2.81 K in [6]. The dTm in assay [7] is recorded as 2.01 K; in assay [8], 3.48 K; in assay [9], -0.65 K.

For the compound `O=C(Nc1cccc(-c2c[nH]c3ncnc(N4CCOCC4)c23)c1)C1(C(=O)Nc2cccc3c2CCC3)CC1` [Compound 11], the dTm is 7.29 K in assay [1]; 0.68 K in [2]; -2.39 K in assay [3]; 0.47 K in assay [4]; 1.21 K in assay [5]; 1.65 K in assay [6]. Also, the figures for the dTm in assay [7], in assay [8] and in assay [9] were 0.40 K, 4.12 K and -0.99 K, respectively.

The values are drawn from article PMC12136037, “Type II kinase inhibitors that target Parkinson’s disease–associated LRRK2” (Science Advances, 2025).
